Values of other authors, collected in US20110294879A1, “METHOD OF TREATMENT OF FRAGILE X SYNDROME, DOWN'S SYNDROME, AUTISM AND RELATED DISORDERS” (XENOPORT, INC., priority 2010, published 2011).

Legend:
[1] = tested on: subjects with FXS and comorbid autistic disorder
Fmr KO mice = details: Bear et al patents
[2] = humans

SMILES: CC(=O)NCCCS(=O)(=O)O [CAMPRAL, acamprosate calcium]
- adverse GI events ([1]; fragile X subjects treated in the study): observed in the majority of fragile X subjects
- Clinical Global Impression (CGI-I) ([1]; subjects with FXS and comorbid autistic disorder, Erickson et al 2010): significant symptomatic improvements

SMILES: Cc1cccc(C#Cc2ccccc2)n1 [MPEP, 2-methyl-6-(phenylethynyl)-pyridine]
- behavioral and developmental phenotypes (Fmr KO mice): reverse behavioral and developmental phenotypes

SMILES: CC(=O)NCCCS(=O)(=O)O [acamprosate, 3-(Acetylamino)propylsulfonic acid]
- oral bioavailability [2]: about 11%

SMILES: Cc1nc2n(c(=O)c1CCN1CCC(c3noc4cc(F)ccc34)CC1)CCCC2 [risperidone]
- social isolation and communication (autistic children): not improved
- irritability subscale of the Aberrant Behavior Checklist and Clinical Global Impressions-Improvement (autistic children; McCracken et al 2002): significant improvement
